Assay results taken from patent US20030003583A1, “Regulation of transgene expression following AAV transduction” (priority 2001, published 2003).
Residues, ends and D or L forms follow the SMILES beside them. *: point of attachment. Cbz = O=C(OCc1ccccc1)*

Columns and labels:
proteasome = conditions: cited from earlier work
[1] = system: RA synovium implanted into SCID mice; assay: Luciferase expression in RA synovium implanted into SCID mice, injected with AAV(Luc), after in vivo zLLL; conditions: zLLL into the synovial tissue or intraperitoneally two weeks after AAV(Luc); tissue removed 48 hours later
Experimental: RA synovium was implanted into SCID mice. Two weeks later, synovial tissues were injected with 6.8×10^10 particles of AAV(Luc). Two weeks following rAAV administration, zLLL was administered in a 100 μl volume either directly into the synovial tissue or intraperitoneally. Synovial tissues were removed 48 hours later, homogenized, and assayed for luciferase content.
The optimal in vivo dose and route of administration is unclear from this preliminary study and will be addressed in the proposed experiments.

other cell types = conditions: cited from earlier work
[2] = system: human type B synoviocytes infected with rAAV(mIL-10); assay: Mouse IL-10 transgene expression (ELISA of supernatants) in human type B synoviocytes infected with rAAV(mIL-10); assay type: cell-based
Experimental: Synoviocytes were infected with rAAV on day 0. On day 1, cells were exposed to the indicated amounts of zLLL for 24 hours. Supernatants were harvested on days 3 and 7 and assayed by ELISA for mouse IL-10.
Synoviocytes were infected with rAAV on day 0. At various times (indicted by the arrows), some cells were exposed to 40 μM of zLLL for 24 hours (A) or to recombinant adenovirus lacking a transgene (B). Supernatants were harvested and assayed by ELISA for mouse IL-10.
Kwon, C. Mah, and A. Srivastava. 2000. Impaired intracellular trafficking of adeno-associated virus type 2 vectors limits efficient transduction of murine fibroblasts. J Virol 74:992-996) to determine whether human synoviocytes could be made to express a transgene following AAV-mediated gene transfer. […] This is inconsistent with the proposed mechanism of action of zLLL, that of increasing viral trafficking to the nucleus, as transgene expression should be stable once the viral genome reaches the nucleus and sufficient second strand synthesis occurs.
(§1) To further explore this finding, synovial cells were re-exposed to zLLL following the loss of transgene expression. […] In each case, expression peaked 2-3 days following exposure to zLLL and then dropped off. We were able to re-induce transgene expression as far out as 25 days after infection. We have not yet looked at further time points, but we can already conclude that the transgene persists in the synoviocytes for an extended period of time and that its expression can be regulated by zLLL.
This is inconsistent with the proposed mechanism of action of zLLL, that of increasing viral trafficking to the nucleus, as transgene expression should be stable once the viral genome reaches the nucleus and sufficient second strand synthesis occurs.
as §1, with “reinduce” for “re-induce”

mouse lungs = conditions: in vivo; cited from earlier work
[3] = system: human type B synoviocyte cultures infected with rAAV(mIL-4); assay: Real-time PCR of transgene mRNA in human type B synoviocytes infected with rAAV(mIL-4); assay type: cell-based; conditions: 40 μM zLLL for 24 hours
Experimental: Human type B synoviocyte cultures were infected with rAAV(mIL-4). Ten days later, some cells were exposed to 40 μM of zLLL for 24 hours. Cells were harvested and RNA was extracted, reverse transcribed, and subjected to real-time PCR using a LightCycler™ System (Roche Molecular Biochemicals, Indianapolis, Ind.) with the FastStart DNA Master SYBR Green I reaction mix and gene specific primers. LIGHTCYCLER Quantification Software v5.32 was used to compare amplification in the samples during the log-linear phase. Data are normalized to the AAV(mIL-4) samples, which are given a value of 1. The ZLLL group was not infected with AAV (IL-4).
Synoviocytes transduced with AAV(mIL-4) were exposed to zLLL and RNA was extracted and subjected to real-time PCR. zLLL induced a 250-fold increase in mIL-4 mRNA with no increase in the constituitively-expressed gene, GAPDH (FIG. 4).

In the case of `CC(C)C[C@@H](C=O)NC(=O)[C@H](CC(C)C)NC(=O)[C@H](CC(C)C)NC(=O)OCc1ccccc1` [zLLL, Carbobenzoxyl-L-leucyl-L-leucyl-L-leucinal] (Cbz-Leu-Leu-Leu-aldehyde), the “specificity for the proteasome / other proteases inhibited” value (proteasome) is given as “can also inhibit certain lysosomal cysteine proteases and the calpains”, the “in vivo transgene (luciferase) expression” value [1] is given as “dramatically enhanced” and the “nuclear accumulation of rAAV particles and the rAAV genome” value (other cell types) is given as “increase nuclear accumulation”. The “transgene expression on re-exposure after loss of expression” value ([2]; 40 μM zLLL for 24 hours at various times) was “could be repeatedly induced”, the “expression of a mouse IL-10 transgene” value ([2]; 3 days following infection with rAAV, zLLL for 24 hours on day 1, dose dependent) was “dramatically enhanced” and the “expression of mouse IL-10 transgene by day 7” value ([2]; day 7 after infection, single 24 h zLLL exposure on day 1) was “expression was lost”. For the same compound, the “latest time after infection at which transgene expression was re-induced” value ([2]; days after infection) was 25 days, the “time of peak expression following exposure” value ([2]; following each exposure to zLLL) was 2 to 3 days and the “rAAV-mediated transduction in mouse lungs” value (mouse lungs) was “enhance rAAV-mediated transduction”. For the same compound, the “change in constitutively expressed gene GAPDH mRNA” value [3] was “no increase” and the “increase in mIL-4 mRNA” value ([3]; ten days after infection, normalized to AAV(mIL-4) samples) was 250 fold.
In the case of `CC(=O)N[C@@H](CSC(=O)[C@]1([C@@H](O)C(C)C)NC(=O)[C@H](C)[C@@H]1O)C(=O)O` [Lactacystin], the “specificity for the proteasome / other proteases inhibited” value (proteasome) is given as “high specificity for the proteasome”.
